Laboratory results: ChEMBL document CHEMBL1777694, “Quinazolinedione sulfonamides: a novel class of competitive AMPA receptor antagonists with oral activity” (Bioorg Med Chem Lett, 2011)
Activity calls are given as the source filed them. No cut-off for these calls is given here.

Key:
[1] = target: T1, Glutamate NMDA receptor (Rattus norvegicus) (UniProt P35439+Q00959+Q00960+Q00961+Q62645+Q8VHN2+Q9R1M7); test: Inhibition of NMDA receptor glycine site in rat brain homogenate at 10 uM; format: tissue-based
[2] = Displacement of [3H]CNQX from AMPA receptor in rat brain homogenate; format: tissue-based
Rattus norvegicus [3] = species: Rattus norvegicus; test: Inhibition of AMPA receptor in rat brain homogenate at 10 uM; format: tissue-based
Glutamate NMDA receptor = test: Displacement of [3H]MDL105519 from NMDA receptor glycine site in rat brain homogenate; format: tissue-based
[4] = target: T1, Glutamate NMDA receptor (Rattus norvegicus); test: Inhibition of NMDA receptor glycine site in rat brain homogenate at 100 uM; format: tissue-based
Mus musculus [5] = test: Anticonvulsant activity in po dosed OF1 mouse assessed as inhibition of electroshock-induced seizures administered 1 hr before electroshock challenge; format: functional
Mus musculus [6] = test: Anticonvulsant activity in po dosed DBA2 mouse assessed as inhibition of sound-induced seizures; format: functional, organism-based
Mus musculus [7] = test: Anticonvulsant activity in OF1 mouse assessed as inhibition of electroshock-induced seizures at 30 mg/kg, ip administered 1 hr before electroshock challenge; format: functional; settings: route intraperitoneal
[8] = target: Glutamate receptor 2 (Homo sapiens) (UniProt P42262); test: Binding affinity to human GluA2 by X-ray crystallography
Sequence of Glutamate receptor 2 (Homo sapiens) (P42262 whole entry): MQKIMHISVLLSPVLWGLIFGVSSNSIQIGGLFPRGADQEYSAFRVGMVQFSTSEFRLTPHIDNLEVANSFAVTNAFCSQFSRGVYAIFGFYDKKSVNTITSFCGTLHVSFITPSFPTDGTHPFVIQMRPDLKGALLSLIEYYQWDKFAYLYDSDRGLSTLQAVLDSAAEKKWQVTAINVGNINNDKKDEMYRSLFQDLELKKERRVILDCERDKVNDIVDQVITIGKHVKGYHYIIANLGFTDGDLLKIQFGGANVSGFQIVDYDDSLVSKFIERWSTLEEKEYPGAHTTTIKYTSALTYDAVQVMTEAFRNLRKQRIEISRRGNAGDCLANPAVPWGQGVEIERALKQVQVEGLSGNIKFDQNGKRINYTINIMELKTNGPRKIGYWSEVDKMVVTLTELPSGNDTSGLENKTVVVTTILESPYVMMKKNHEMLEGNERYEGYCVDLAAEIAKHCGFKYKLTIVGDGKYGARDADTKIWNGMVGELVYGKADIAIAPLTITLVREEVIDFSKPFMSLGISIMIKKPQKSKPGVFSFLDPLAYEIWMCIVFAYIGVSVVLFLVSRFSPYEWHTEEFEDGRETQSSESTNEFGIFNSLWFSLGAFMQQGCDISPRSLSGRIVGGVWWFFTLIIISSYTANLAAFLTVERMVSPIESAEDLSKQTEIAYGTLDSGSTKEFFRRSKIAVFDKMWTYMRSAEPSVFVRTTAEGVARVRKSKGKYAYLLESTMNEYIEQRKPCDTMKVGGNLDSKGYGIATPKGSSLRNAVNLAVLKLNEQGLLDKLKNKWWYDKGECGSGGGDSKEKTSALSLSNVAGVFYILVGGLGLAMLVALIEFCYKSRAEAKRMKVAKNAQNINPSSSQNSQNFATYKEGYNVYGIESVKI

Rattus norvegicus [9] = species: Rattus norvegicus; test: Inhibition of AMPA receptor in rat brain homogenate at 100 uM; format: tissue-based
Mus musculus [10] = test: Anticonvulsant activity in OF1 mouse assessed as inhibition of electroshock-induced seizures at 30 mg/kg, po administered 1 hr before electroshock challenge; format: functional
[11] = Dissociation constant, pKa of the compound; format: physicochemical

SMILES	inhibition [1] [%]	IC50 [2] [µM]	further results
CS(=O)(=O)Nn1c(=O)[nH]c2cc([N+](=O)[O-])ccc2c1=O	16	1.2	–
CS(=O)(=O)Nn1c(=O)[nH]c2cc(S(C)(=O)=O)ccc2c1=O	–	–	inhibition (Rattus norvegicus [3]): 42%; IC50 (Glutamate NMDA receptor): > 100 µM
CS(=O)(=O)Nn1c(=O)[nH]c2cc(-c3ccccc3)ccc2c1=O	–	–	inhibition [4]: 36%; inhibition (Rattus norvegicus [3]): 36%
CS(=O)(=O)Nn1c(=O)[nH]c2ccc(Cl)cc2c1=O	–	34	inhibition [4]: 50%
CS(=O)(=O)Nn1c(=O)[nH]c2cc(C(F)(F)F)ccc2c1=O	13	0.92	ED50 (Mus musculus [5]): 54 mg/kg; IC50 (Glutamate NMDA receptor): 17.8 µM
CS(=O)(=O)Nn1c(=O)[nH]c2c(Cl)cccc2c1=O	–	> 100	inhibition [4]: 37%
Cn1cnc(S(=O)(=O)Nn2c(=O)[nH]c3cc(Cl)ccc3c2=O)c1	–	1.6	–
C=Cc1ccc2c(=O)n(NS(C)(=O)=O)c(=O)[nH]c2c1	–	1.9	IC50 (Glutamate NMDA receptor): > 10 µM
CS(=O)(=O)Nn1c(=O)[nH]c2cc(C3CCCC3)ccc2c1=O	–	–	inhibition (Rattus norvegicus [3]): 25%
CS(=O)(=O)Nn1c(=O)[nH]c2cccc(Cl)c2c1=O	–	29	inhibition [4]: 34%
CS(=O)(=O)Nn1c(=O)[nH]c2cc([N+](=O)[O-])c(-n3ccnc3)cc2c1=O	24	0.082	inhibition (Mus musculus [6]): inactive; inhibition in vivo at 30 mg/kg (Mus musculus [7]): 40%; inhibition (Mus musculus [5]): inactive; Activity [8]: Active
CS(=O)(=O)Nn1c(=O)[nH]c2cc(Br)ccc2c1=O	49	2.2	–
CN(n1c(=O)[nH]c2cc(Cl)ccc2c1=O)S(C)(=O)=O	–	–	inhibition [4]: 18%; inhibition (Rattus norvegicus [9]): 12%
O=c1[nH]c2cc(Cl)ccc2c(=O)n1NS(=O)(=O)c1ccccc1	–	4.9	IC50 (Glutamate NMDA receptor): 9.3 µM
CS(=O)(=O)Nn1c(=O)[nH]c2cc(F)ccc2c1=O	17	8.2	–
CS(=O)(=O)Nn1c(=O)[nH]c2cc(C#N)ccc2c1=O	28	0.75	–
CS(=O)(=O)Nn1c(=O)[nH]c2ccccc2c1=O	–	57	inhibition [4]: 48%
CCc1ccc2c(=O)n(NS(C)(=O)=O)c(=O)[nH]c2c1	–	3	ED50 (Mus musculus [5]): 16 mg/kg
CS(=O)(=O)Nn1c(=O)[nH]c2cc(CCc3ccccc3)ccc2c1=O	26	1.1	–
CCS(=O)(=O)Nn1c(=O)[nH]c2cc(Cl)ccc2c1=O	–	2.3	IC50 (Glutamate NMDA receptor): 35 µM
COc1ccc2c(=O)n(NS(C)(=O)=O)c(=O)[nH]c2c1	22	3.7	inhibition in vivo at 30 mg/kg (Mus musculus [10]): 60%
O=c1[nH]c2cc(Cl)ccc2c(=O)n1NS(=O)(=O)Cc1ccccc1	–	2.9	IC50 (Glutamate NMDA receptor): 0.21 µM
CS(=O)(=O)Nn1c(=O)[nH]c2cc(Cl)c(-n3ccnc3)cc2c1=O	–	0.52	IC50 (Glutamate NMDA receptor): 17.2 µM
CS(=O)(=O)Nn1c(=O)[nH]c2cc(C(=O)O)ccc2c1=O	–	–	inhibition (Rattus norvegicus [3]): 0%
CS(=O)(=O)Nn1c(=O)[nH]c2cc(Cl)ccc2c1=O	32	2.4	ED50 (Mus musculus [5]): 23 mg/kg; pKa [11]: 6.9
Cc1ccc2c(=O)n(NS(C)(=O)=O)c(=O)[nH]c2c1	13	9.7	ED50 (Mus musculus [5]): 9 mg/kg
Cn1c(=O)n(NS(C)(=O)=O)c(=O)c2ccc(Cl)cc21	–	–	inhibition [4]: 36%; inhibition (Rattus norvegicus [9]): 45%
CC(C)(C)c1ccc2c(=O)n(NS(C)(=O)=O)c(=O)[nH]c2c1	–	4.9	ED50 (Mus musculus [5]): 29.5 mg/kg; IC50 (Glutamate NMDA receptor): > 100 µM
